The numbers were not newly measured in patent US8388671B2, “Methods for treatment of aneurysmal tissue” (Medtronic Vascular, Inc., priority 2004, dated 2013), which cites them from elsewhere.

For “hydroxy-polyethoxy-dodecane [Polidocanol]”, in the data set with mice, the LD50 in mice is 1200 mg/kg. The LD50 in rabbits in the data set on rabbits is on record as 200 mg/kg. In the data set on rabbits (LD50 greater than that of Novocain), the “LD50 relative to that of Novocain” value is listed as “approximately 5 times”.
